Assay results taken from patent US20190269656A1, “Combination Therapies Using Indazolylbenzamide Derivatives for the Treatment of Cancer” (ESANEX, INC., priority 2016, published 2019).

What was measured:
[1] = Tolerability: treatment-emergent adverse events and MTD, SNX-5422 dose escalation plus everolimus in NET patients; assay type: in vivo; conditions: in combination with everolimus, once every other day for 21 days of 28-day cycle
Procedure: (§1) Starting on Day 1, SNX-5422 was dosed once every other day for 21 days (11 doses), followed by a 7-day drug free period. SNX-5422 was dosed each morning starting at 50 mg/m^2 with standard 3+3 dose escalation. The actual dose administered was based on body surface area, calculated using body weight measured at the start of each cycle and height at Screening. The calculated dose was then rounded to the nearest mg on dosing chart. Everolimus was dosed at 10 mg once daily in the evening (at least 8 hours after SNX-5422 dosing) for 28 days, with dose de-escalation allowed based on EVR toxicity. Eligible patients were to have unresectable gastro-entero-pancreatic or pulmonary NETs and less than 5 prior lines of anti-cancer treatment.
Results: Seventeen patients (10 male, 7 female; median age 59 years) with NETs were enrolled in the study. The maximum tolerated dose (MTD) of SNX-5422 was determined to be 75 mg/m^2 in combination with everolimus.
Tolerability: Most frequent (i.e., occurring in 6 or more patients overall) Treatment-Emergent Adverse Events (TEAEs) are provided in Table 1. All patients reported at least one TEAE. Diarrhea was the most commonly reported TEAE, occurring in 80% of patients overall. In 13 patients (65%), the event was considered related to the combination of SNX-5422 and everolimus. […]

[2] = test system: unresectable gastro-entero-pancreatic or pulmonary NETs; assay: Tumor response by RECIST 1.1 in NET patients treated with SNX-5422 plus everolimus; assay type: in vivo, human
Procedure: as §1
Tumor response was assessed at the end of every 2 cycles±2 weeks, using RECIST 1.1 criteria (Eisenhauer et al. European Journal of Cancer 45:228-247 (2009)). Partial Response (PR) was defined as at least a 30% decrease in the sum of diameters of target lesions, taking as reference the baseline sum diameters. Progressive Disease (PD) was defined as at least a 20% increase in the sum of diameters of target lesions, taking as reference the smallest sum on study. Stable disease is noted where there is no sufficient shrinkage to qualify for PR or no sufficient increase to qualify for PD.

[3] = test system: advanced, non-functional neuroendocrine tumours of the lung or gastrointestinal tract; conditions: everolimus only, without SNX-5422; patients with NETs; RADIANT-4; cited from earlier work
[4] = of 17 NET patients evaluable, SNX-5422 plus everolimus, RECIST 1.1
[5] = patients previously treated with 2 or less prior lines of treatment (FIG. 2), SNX-5422 plus everolimus
[6] = six patients, GI tract/lung/unknown carcinoid, ≤2 prior lines and Ki67<20% (FIG. 4), SNX-5422 plus everolimus

Row | SMILES | maximum tolerated dose (MTD) [1] | subjects receiving ongoing treatment for over 2 years (i.e., ≥30 cycles) ([2]; combination of SNX-5422 plus everolimus, NET patients) | partial response as best response, % of patients [2, 4] | partial response as best response, number of patients [2, 4] | progressive disease as best response, % of patients [2, 4] | progressive disease as best response, number of patients [2, 4] | stable disease as best response, % of patients [2, 4] | stable disease as best response, number of patients [2, 4] | tumor reduction ([2]; one patient with GI NET, 30 treatment cycles, SNX-5422 plus everolimus) | tumor reduction ([2]; one patient with lung carcinoid, 10 treatment cycles, SNX-5422 plus everolimus) | tumor reduction ([2]; one patient with unknown carcinoid, 35 treatment cycles, SNX-5422 plus everolimus) | reduction in target lesion size ([2]; one patient, SNX-5422 plus everolimus) | tumor measurement, second diameter (CT scan left iliac adenopathy) ([2]; patient with pulmonary carcinoid NET, after 4 cycles of treatment, baseline 4.25 cm, SNX-5422 plus everolimus) | tumor measurement, first diameter (CT scan left iliac adenopathy) ([2]; patient with pulmonary carcinoid NET, after 4 cycles of treatment, baseline 6.51 cm, SNX-5422 plus everolimus) | partial response as best response, number of patients [2, 5] | progressive disease as best response, number of patients [2, 5] | stable disease as best response, number of patients [2, 5] | overall response rate [2, 6] | partial response, number of patients [2, 6] | partial response rate, % of patients [3]
1 | CC1(C)CC(=O)c2c(C(F)(F)F)nn(-c3ccc(C(N)=O)c(N[C@H]4CC[C@H](OC(=O)CN)CC4)c3)c2C1 [SNX-5422, trans-4-({2-(aminocarbonyl)-5-[6,6-dimethyl-4-oxo-3-(trifluoromethyl)-4,5,6,7-tetrahydro-1H-indazol-1-yl]phenyl}amino)cyclohexyl glycinate] | 75 mg/m^2 | 2 subjects | 18% | 3 patients | 18% | 3 patients | 64% | 11 patients | 31% | 51% | 36% | 51% | 2.42 cm | 3.75 cm | 3 patients | 1 patients | 7 patients | 50% | three | 
2 | CO[C@H]1C[C@@H]2CC[C@@H](C)[C@@](O)(O2)C(=O)C(=O)N2CCCC[C@H]2C(=O)O[C@H]([C@H](C)C[C@@H]2CC[C@@H](OCCO)[C@H](OC)C2)CC(=O)[C@H](C)/C=C(\C)[C@@H](O)[C@@H](OC)C(=O)[C@H](C)C[C@H](C)/C=C/C=C/C=C/1C [everolimus, (1R,9S,12S,15R,16E,18R,19R,21R,23S,24E,26E,28E,30S,32S,35R)-1,18-dihydroxy-12-{(1R)-2-[(1 S,3R,4R)-4-(2-hydroxyethoxy)-3-methoxycyclohexyl]-1-methylethyl}-19,30-dimethoxy-15,17,21,23,29,35-hexamethyl-11,36-dioxa-4-aza-tricyclo[30.3.1.04,9]hexatriaconta-16,24,26,28-tetraene-2,3,10,14,20-pentaone] |  |  |  |  |  |  |  |  |  |  |  |  |  |  |  |  |  |  |  | about 2%
